# Test results published in PubChem BioAssay AID1919002 (Molecular Pharmacology Branch, DTP, NCI, 2023).
# Test system: 743489-274-T-PDC complex spheroid growth
# Assay: Anticancer human tumor 743489-274-T-PDC patient-derived renal cell carcinoma cell line growth inhibition [AhR]
# Conditions: for IC50: curve of first compound; for viability, T/C: stronger effect = lower value
# Summary of the method: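 Spheroids combined tumor cells with HUVEC endothelial cells and human MSCs as stroma. AhR antagonists were paired with standard or investigational drugs, each dosed in half-log steps down from near clinical Cmax, or from 10 microM where Cmax was unknown.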
# [1] = second compound 0.1 µM, first compound 0.0316 µM
# [2] = second compound 0.1 µM, first compound 0.1 µM
# [3] = second compound 0.1 µM, first compound 0.316 µM
# [4] = second compound 0.1 µM, first compound 1 µM
# [5] = second compound 0.1 µM, first compound 3.16 µM
# [6] = second compound 0.1 µM, first compound 10 µM
# [7] = second compound 0.316 µM, first compound 0.0316 µM
# [8] = second compound 0.316 µM, first compound 0.1 µM
# [9] = second compound 0.316 µM, first compound 0.316 µM
# [10] = second compound 0.316 µM, first compound 1 µM
# [11] = second compound 0.316 µM, first compound 3.16 µM
# [12] = second compound 0.316 µM, first compound 10 µM
# [13] = second compound 1 µM, first compound 0.0316 µM
# [14] = second compound 1 µM, first compound 0.1 µM
# [15] = second compound 1 µM, first compound 0.316 µM
# [16] = second compound 1 µM, first compound 1 µM
# [17] = second compound 1 µM, first compound 3.16 µM
# [18] = second compound 1 µM, first compound 10 µM
# [19] = second compound 3.16 µM, first compound 0.0316 µM
# [20] = second compound 3.16 µM, first compound 0.1 µM
# [21] = second compound 3.16 µM, first compound 0.316 µM
# [22] = second compound 3.16 µM, first compound 1 µM
# [23] = second compound 3.16 µM, first compound 3.16 µM
# [24] = second compound 3.16 µM, first compound 10 µM
# [25] = second compound 10 µM, first compound 0.0316 µM
# [26] = second compound 10 µM, first compound 0.1 µM
# [27] = second compound 10 µM, first compound 0.316 µM
# [28] = second compound 10 µM, first compound 1 µM
# [29] = second compound 10 µM, first compound 3.16 µM
# [30] = second compound 10 µM, first compound 10 µM
# 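Further: spheroids exposed to agents for 7 days before readout.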
# 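Wherever viability, T/C is given: 100% = DMSO vehicle control wells.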
SMILES,IC50 (second compound 0.1 µM) [µM],IC50 (second compound 0.316 µM) [µM],IC50 (second compound 1 µM) [µM],IC50 (second compound 3.16 µM) [µM],IC50 (second compound 10 µM) [µM],"viability, T/C [1] [%]","viability, T/C [2] [%]","viability, T/C [3] [%]","viability, T/C [4] [%]","viability, T/C [5] [%]","viability, T/C [6] [%]","viability, T/C [7] [%]","viability, T/C [8] [%]","viability, T/C [9] [%]","viability, T/C [13] [%]","viability, T/C [14] [%]","viability, T/C [19] [%]","viability, T/C [20] [%]","viability, T/C [25] [%]","viability, T/C [26] [%]",other results
COc1cc(C2c3cc4c(cc3C(OC3OC5COC(C)OC5C(O)C3O)C3COC(=O)C23)OCO4)cc(OC)c1O (stereo not given) + Cc1ccccc1N=Nc1ccc(NC(=O)c2ccnn2C)c(C)c1,> 10,> 10,> 10,> 10,> 10,98.7,87,97.2,94.4,98.3,79.9,91.2,93.6,91.2,86.7,93.7,83.3,90.2,78.4,81.8,"viability, T/C [10]: 88.9%; viability, T/C [11]: 77.9%; viability, T/C [12]: 80.7%; viability, T/C [15]: 90.7%; viability, T/C [16]: 88.9%; viability, T/C [17]: 90.4%; viability, T/C [18]: 74.8%; viability, T/C [21]: 86.9%; viability, T/C [22]: 78.8%; viability, T/C [23]: 78.6%; viability, T/C [24]: 75.8%; viability, T/C [27]: 95.1%; viability, T/C [28]: 72%; viability, T/C [29]: 69.4%; viability, T/C [30]: 70.7%"
CC[C@@]1(O)C(=O)OCc2c1cc1n(c2=O)Cc2cc3c(CN(C)C)c(O)ccc3nc2-1 + Cc1cncc(-c2nc(NCCc3c[nH]c4ccccc34)c3ncn(C(C)C)c3n2)c1,> 0.1,> 0.1,> 0.1,> 0.1,> 0.1,93.1,97.4,–,–,–,–,92.8,90.4,–,86.5,84.3,107,84.7,123,114,"viability, T/C (second compound 0.1 µM, first compound 0.000316 µM): 100%; viability, T/C (second compound 0.1 µM, first compound 0.001 µM): 108%; viability, T/C (second compound 0.1 µM, first compound 0.00316 µM): 98.7%; viability, T/C (second compound 0.1 µM, first compound 0.01 µM): 94.5%; viability, T/C (second compound 0.316 µM, first compound 0.000316 µM): 105%; viability, T/C (second compound 0.316 µM, first compound 0.001 µM): 110%; viability, T/C (second compound 0.316 µM, first compound 0.00316 µM): 105%; viability, T/C (second compound 0.316 µM, first compound 0.01 µM): 98.6%; viability, T/C (second compound 1 µM, first compound 0.000316 µM): 101%; viability, T/C (second compound 1 µM, first compound 0.001 µM): 105%; viability, T/C (second compound 1 µM, first compound 0.00316 µM): 101%; viability, T/C (second compound 1 µM, first compound 0.01 µM): 89.8%; viability, T/C (second compound 3.16 µM, first compound 0.000316 µM): 113%; viability, T/C (second compound 3.16 µM, first compound 0.001 µM): 109%; viability, T/C (second compound 3.16 µM, first compound 0.00316 µM): 129%; viability, T/C (second compound 3.16 µM, first compound 0.01 µM): 101%; viability, T/C (second compound 10 µM, first compound 0.000316 µM): 136%; viability, T/C (second compound 10 µM, first compound 0.001 µM): 123%; viability, T/C (second compound 10 µM, first compound 0.00316 µM): 133%; viability, T/C (second compound 10 µM, first compound 0.01 µM): 123%"
Nc1ccn(C2OC(CO)C(O)C2(F)F)c(=O)n1 (stereo not given) + Cc1ccccc1N=Nc1ccc(NC(=O)c2ccnn2C)c(C)c1,> 10,> 10,9.15,1.48,> 10,65,62.7,54.7,63.4,57.1,59.1,66.4,62,56.5,61,57.4,68.1,55.8,69.9,56.9,"viability, T/C [10]: 59.4%; viability, T/C [11]: 54.8%; viability, T/C [12]: 53.1%; viability, T/C [15]: 65.6%; viability, T/C [16]: 56.7%; viability, T/C [17]: 51.2%; viability, T/C [18]: 50.8%; viability, T/C [21]: 51.9%; viability, T/C [22]: 45.5%; viability, T/C [23]: 50.8%; viability, T/C [24]: 52.3%; viability, T/C [27]: 51.4%; viability, T/C [28]: 60.6%; viability, T/C [29]: 47.8%; viability, T/C [30]: 55.4%"
Nc1ccn(C2OC(CO)C(O)C2(F)F)c(=O)n1 (stereo not given) + CC(CO)NC(=O)c1cc(-c2ccc(Cl)cc2)nn(-c2cnn(C)c2)c1=O,> 10,> 10,> 10,> 10,> 10,81.9,79.7,71.8,62.2,59.9,67.7,80.7,73,70.8,84,68.5,81.1,75.9,90.2,82.5,"viability, T/C [10]: 68.3%; viability, T/C [11]: 62.6%; viability, T/C [12]: 69.9%; viability, T/C [15]: 68.3%; viability, T/C [16]: 59.5%; viability, T/C [17]: 70%; viability, T/C [18]: 71.5%; viability, T/C [21]: 64.4%; viability, T/C [22]: 64.7%; viability, T/C [23]: 76.6%; viability, T/C [24]: 63.6%; viability, T/C [27]: 65.3%; viability, T/C [28]: 65.1%; viability, T/C [29]: 77.2%; viability, T/C [30]: 74.3%"
